Like-named read-outs stand apart in the source and are kept apart here.
What was measured:
[1] = target: CRTH2 (Mus musculus, UniProt Q9Z2J6); details: intratracheal bleomycin, 30 mg/kg IP every other day, Day 5 to Day 14; for bleomycin-induced collagen accumulation: Sircol on Day 14 (FIG. 6D)
Procedure: Sex-matched, 8-wk-old wild-type (WT), pale ear, CHI3L1^−/−, and CHI3L1Tgmice (≥5 mice/group) were exposed to a single bleomycin injection (1.25 U/kg; Teva Parenteral Medicines, Irvine, Calif.) via intratracheal administration. Mice were sacrificed and evaluated at Day 7 and Day 14 to examine apoptosis and fibrosis, respectively.
Animals were anesthetized, median sternotomy was performed, and right heart perfusion completed with calcium and magnesium-free PBS. The heart and lungs were then removed. The right lung was frozen in liquid nitrogen and stored at −80° C. until used. Collagen content was determined by quantifying total soluble collagen using the Sircol Collagen Assay kit (Biocolor, Accurate Chemical & Scientific Co., Westbury, N.Y.) according to the manufacturer's instructions.
Sex-matched, 8-wk-old wild-type (WT), pale ear, and CHI3L1 Tg mice (≥5 mice/group) were exposed to a single bleomycin injection (1.25 U/kg; Teva Parenteral Medicines, Irvine, Calif.) via intratracheal administration. Mice were treated with 30 mg/kg CAY10471 (Cayman Chemical) (IP, every other day) or DMSO control from Day 5 to Day 14.

[2] = system: Primary Type II alveolar epithelial cells; experiment: Bleomycin-induced apoptosis (TUNEL) in primary Type II alveolar epithelial cells; format: cell-based, mouse; details: 500 ng/ml pre-treatment, 100 μg/ml bleomycin (FIG. 5A)
Procedure: End labeling of exposed 3′-OH ends of DNA fragments in paraffin-embedded tissue was undertaken with the TUNEL in situ cell death detection kit AP (Roche Diagnostics). SPC co-staining was performed using a goat anti-mouse SPC primary antibody (Santa Cruz) and Alexa Fluor 594 secondary antibody. After staining, 8-10 random pictures were obtained from each lung, and a minimum of 300 cells were visually evaluated in each section. The labeled cells were expressed as a percentage of total nuclei.
WT and pale ear mouse lungs were digested with collagenase and DNase I. The resulting suspension was filtered through Falcon cell strainers, and the cells were negatively selected with anti-CD16/CD32 antibodies. Cells were maintained in BEGM+5% charcoal-stripped FBS and 10 ng/ml KGF. A549 cells were obtained from the American Type Culture Collection (ATCC, Manassas, Va.) and maintained in DMEM+2 mM glutamine+10% FBS. Primary Type II Cells were pre-treated with 500 ng/ml recombinant CHI3L1, transfected with IL-13Rα2 construct, and stimulated with 100 μg/ml bleomycin. In A549 cells, HPS1, HPS4, Rab32, and Rab38 siRNA were co-transfected with IL-13Rα2 construct, and stimulated with 100 μg/ml bleomycin. Cells were cytospun onto slides. Immunofluorescence and/or TUNEL staining were performed as previously described.

Sequence of CRTH2 (Q9Z2J6 whole entry): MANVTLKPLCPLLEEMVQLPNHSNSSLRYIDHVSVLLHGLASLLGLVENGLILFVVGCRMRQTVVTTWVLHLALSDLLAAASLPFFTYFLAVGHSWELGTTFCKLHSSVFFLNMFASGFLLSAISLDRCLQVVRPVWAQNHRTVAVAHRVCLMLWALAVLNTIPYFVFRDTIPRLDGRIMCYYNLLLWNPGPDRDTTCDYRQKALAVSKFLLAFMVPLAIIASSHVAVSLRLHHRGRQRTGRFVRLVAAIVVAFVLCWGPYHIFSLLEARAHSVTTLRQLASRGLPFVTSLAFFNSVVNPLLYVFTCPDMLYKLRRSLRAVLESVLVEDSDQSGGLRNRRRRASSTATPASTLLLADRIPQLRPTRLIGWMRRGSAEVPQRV

Compound	exaggerated fibrosis caused by CHI3L1 transgene activation during fibroproliferative repair ([1]; CHI3L1 Tg mice, Sircol on Day 14 (FIG. 6E))	bleomycin-induced collagen accumulation ([1]; HPS1 null (pale ear) mice)	bleomycin-induced collagen accumulation ([1]; WT mice)	bleomycin-induced apoptosis (TUNEL-positive cells) ([2]; cells from WT mice)	bleomycin-induced apoptosis (TUNEL-positive cells) ([2]; cells from pale ear mice)
CN(C1CCc2c(c3ccccc3n2CC(=O)O)C1)S(=O)(=O)c1ccc(F)cc1 (centres unmarked) [CAY10471]	abrogated	decreased	decreased		
Recombinant CHI3L1: recombinant chitinase 3-like-1 protein				powerful inhibitor	did not decrease
